Experimental data from the supplement of paper PMC10307832.

Columns and labels:
Experiment in all cases: relative viability (nuclei count vs DMSO), 5 days (fraction); higher = more cells survive
NCI-H1944 = system: NCI-H1944
Procedure, shortened: (§1)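 Relative viability was taken as the ratio of nuclei in treated wells to nuclei in vehicle wells. Lung cancer cell lines in 1536-well plates received compounds by pin tool one day after seeding, either one drug alone or a fixed anchor-drug dose plus five library-drug doses (not always all listed) in √10 steps. Nuclei were counted on 4× images after 5 days of treatment, and values are medians of duplicate plates.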

LU99A = system: LU99A
Procedure, shortened: as §1

NCI-H1651 = system: NCI-H1651
Procedure, shortened: as §1

NCI-H1734 = system: NCI-H1734
Procedure, shortened: as §1

UMC-11 = system: UMC-11
Procedure, shortened: as §1

NCI-H2228 = system: NCI-H2228
Procedure, shortened: as §1

NCI-H460 = system: NCI-H460
Procedure, shortened: as §1

HCC-366 = system: HCC-366
Procedure, shortened: as §1

NCI-H3122 = system: NCI-H3122
Procedure, shortened: as §1

CAL-12T = system: CAL-12T
Procedure, shortened: as §1

NCI-H2170 = system: NCI-H2170
Procedure, shortened: as §1

RERF-LC-KJ = system: RERF-LC-KJ
Procedure, shortened: as §1

PC-3 [JPC-3] = system: PC-3 [JPC-3]
Procedure, shortened: as §1

LC-2-ad = system: LC-2-ad
Procedure, shortened: as §1

NCI-H1755 = system: NCI-H1755
Procedure, shortened: as §1

NCI-H2405 = system: NCI-H2405
Procedure, shortened: as §1

ChaGo-K-1 = system: ChaGo-K-1
Procedure, shortened: as §1

HCC-78 = system: HCC-78
Procedure, shortened: as §1

ABC-1 = system: ABC-1
Procedure, shortened: as §1

LOU-NH91 = system: LOU-NH91
Procedure, shortened: as §1

NCI-H1793 = system: NCI-H1793
Procedure, shortened: as §1

NCI-H1395 = system: NCI-H1395
Procedure, shortened: as §1

NCI-H2087 = system: NCI-H2087
Procedure, shortened: as §1

CC1(C)CCC(c2ccc(Cl)cc2)=C(CN2CCN(c3ccc(C(=O)NS(=O)(=O)c4ccc(N[C@H](CCN5CCOCC5)CSc5ccccc5)c(S(=O)(=O)C(F)(F)F)c4)cc3)CC2)C1 [Navitoclax] + O=C(CCCCCCC(=O)Nc1ccccc1)NO [Vorinostat] (partner 1 µM)
relative viability (NCI-H1944; first compound 0.005 µM): 0.54 | relative viability (NCI-H1944; first compound 0.01581 µM): 0.603 | relative viability (NCI-H1944; first compound 0.1581 µM): 0.457 | relative viability (NCI-H1944; first compound 0.5 µM): 0.578 | relative viability (LU99A; first compound 0.005 µM): 0.487 | relative viability (LU99A; first compound 0.01581 µM): 0.451 | relative viability (LU99A; first compound 0.1581 µM): 0.539 | relative viability (LU99A; first compound 0.5 µM): 0.469 | relative viability (NCI-H1651; first compound 0.005 µM): 0.582 | relative viability (NCI-H1651; first compound 0.01581 µM): 0.575 | relative viability (NCI-H1651; first compound 0.05 µM): 0.466 | relative viability (NCI-H1651; first compound 0.1581 µM): 0.573 | relative viability (NCI-H1651; first compound 0.5 µM): 0.598 | relative viability (NCI-H1734; first compound 0.005 µM): 0.829 | relative viability (NCI-H1734; first compound 0.01581 µM): 0.938 | relative viability (NCI-H1734; first compound 0.1581 µM): 0.755 | relative viability (NCI-H1734; first compound 0.5 µM): 0.703 | relative viability (UMC-11; first compound 0.005 µM): 0.43 | relative viability (UMC-11; first compound 0.01581 µM): 0.371 | relative viability (UMC-11; first compound 0.05 µM): 0.39 | relative viability (UMC-11; first compound 0.1581 µM): 0.312 | relative viability (UMC-11; first compound 0.5 µM): 0.148 | relative viability (NCI-H2228; first compound 0.005 µM): 1.13 | relative viability (NCI-H2228; first compound 0.01581 µM): 0.639 | relative viability (NCI-H2228; first compound 0.1581 µM): 0.397 | relative viability (NCI-H2228; first compound 0.5 µM): 0.641 | relative viability (NCI-H460; first compound 0.005 µM): 0.614 | relative viability (NCI-H460; first compound 0.01581 µM): 0.7 | relative viability (NCI-H460; first compound 0.05 µM): 0.561 | relative viability (NCI-H460; first compound 0.1581 µM): 0.645 | relative viability (NCI-H460; first compound 0.5 µM): 0.737 | relative viability (HCC-366; first compound 0.005 µM): 0.302 | relative viability (HCC-366; first compound 0.01581 µM): 0.356 | relative viability (HCC-366; first compound 0.1581 µM): 0.379 | relative viability (HCC-366; first compound 0.5 µM): 0.306 | relative viability (NCI-H3122; first compound 0.005 µM): 1.05 | relative viability (NCI-H3122; first compound 0.01581 µM): 0.807 | relative viability (NCI-H3122; first compound 0.05 µM): 1.06 | relative viability (NCI-H3122; first compound 0.1581 µM): 1.02 | relative viability (NCI-H3122; first compound 0.5 µM): 0.839 | relative viability (CAL-12T; first compound 0.005 µM): 0.73 | relative viability (CAL-12T; first compound 0.01581 µM): 0.825 | relative viability (CAL-12T; first compound 0.05 µM): 0.901 | relative viability (CAL-12T; first compound 0.1581 µM): 0.806 | relative viability (CAL-12T; first compound 0.5 µM): 0.903 | relative viability (NCI-H2170; first compound 0.005 µM): 0.818 | relative viability (NCI-H2170; first compound 0.01581 µM): 0.926 | relative viability (NCI-H2170; first compound 0.05 µM): 0.736 | relative viability (NCI-H2170; first compound 0.1581 µM): 0.771 | relative viability (NCI-H2170; first compound 0.5 µM): 0.622 | relative viability (RERF-LC-KJ; first compound 0.005 µM): 0.718 | relative viability (RERF-LC-KJ; first compound 0.01581 µM): 0.654 | relative viability (RERF-LC-KJ; first compound 0.05 µM): 0.645 | relative viability (RERF-LC-KJ; first compound 0.1581 µM): 0.673 | relative viability (RERF-LC-KJ; first compound 0.5 µM): 0.622 | relative viability (PC-3 [JPC-3]; first compound 0.005 µM): 0.874 | relative viability (PC-3 [JPC-3]; first compound 0.01581 µM): 0.868 | relative viability (PC-3 [JPC-3]; first compound 0.05 µM): 0.877 | relative viability (PC-3 [JPC-3]; first compound 0.1581 µM): 0.817 | relative viability (PC-3 [JPC-3]; first compound 0.5 µM): 0.499 | relative viability (LC-2-ad; first compound 0.005 µM): 0.716 | relative viability (LC-2-ad; first compound 0.01581 µM): 0.686 | relative viability (LC-2-ad; first compound 0.05 µM): 0.665 | relative viability (LC-2-ad; first compound 0.1581 µM): 0.67 | relative viability (LC-2-ad; first compound 0.5 µM): 0.712 | relative viability (NCI-H1755; first compound 0.005 µM): 0.778 | relative viability (NCI-H1755; first compound 0.01581 µM): 0.798 | relative viability (NCI-H1755; first compound 0.05 µM): 0.543 | relative viability (NCI-H1755; first compound 0.1581 µM): 0.728 | relative viability (NCI-H1755; first compound 0.5 µM): 0.691 | relative viability (NCI-H2405; first compound 0.005 µM): 0.979 | relative viability (NCI-H2405; first compound 0.01581 µM): 1.09 | relative viability (NCI-H2405; first compound 0.05 µM): 1.11 | relative viability (NCI-H2405; first compound 0.1581 µM): 1 | relative viability (NCI-H2405; first compound 0.5 µM): 0.811 | relative viability (ChaGo-K-1; first compound 0.005 µM): 0.789 | relative viability (ChaGo-K-1; first compound 0.01581 µM): 0.786 | relative viability (ChaGo-K-1; first compound 0.05 µM): 0.496 | relative viability (ChaGo-K-1; first compound 0.1581 µM): 0.759 | relative viability (ChaGo-K-1; first compound 0.5 µM): 0.781 | relative viability (HCC-78; first compound 0.005 µM): 0.415 | relative viability (HCC-78; first compound 0.01581 µM): 0.49 | relative viability (HCC-78; first compound 0.05 µM): 0.429 | relative viability (HCC-78; first compound 0.1581 µM): 0.431 | relative viability (HCC-78; first compound 0.5 µM): 0.431 | relative viability (ABC-1; first compound 0.005 µM): 1.22 | relative viability (ABC-1; first compound 0.01581 µM): 1.34 | relative viability (ABC-1; first compound 0.05 µM): 0.725 | relative viability (ABC-1; first compound 0.1581 µM): 1.41 | relative viability (ABC-1; first compound 0.5 µM): 1.04 | relative viability (LOU-NH91; first compound 0.005 µM): 0.956 | relative viability (LOU-NH91; first compound 0.01581 µM): 0.925 | relative viability (LOU-NH91; first compound 0.05 µM): 0.791 | relative viability (LOU-NH91; first compound 0.1581 µM): 0.639 | relative viability (LOU-NH91; first compound 0.5 µM): 0.437 | relative viability (NCI-H1793; first compound 0.005 µM): 0.744 | relative viability (NCI-H1793; first compound 0.01581 µM): 0.873 | relative viability (NCI-H1793; first compound 0.1581 µM): 0.667 | relative viability (NCI-H1793; first compound 0.5 µM): 0.444 | relative viability (NCI-H1395; first compound 0.005 µM): 0.653 | relative viability (NCI-H1395; first compound 0.01581 µM): 0.862 | relative viability (NCI-H1395; first compound 0.05 µM): 0.802 | relative viability (NCI-H1395; first compound 0.1581 µM): 0.682 | relative viability (NCI-H1395; first compound 0.5 µM): 0.659 | relative viability (NCI-H2087; first compound 0.005 µM): 0.675 | relative viability (NCI-H2087; first compound 0.01581 µM): 0.467 | relative viability (NCI-H2087; first compound 0.1581 µM): 0.853 | relative viability (NCI-H2087; first compound 0.5 µM): 0.848
